This is an account of results in US8569336B2, “Compounds for the treatment of inflammatory disorders” (priority 2008, dated 2013).

pIC50, pKi: −log10 of the molar value. Where two headings read alike, the source gives them in different places.

Assay [1] concerns the target T1, purified catalytic domain of recombinant human TACE (rhTACEc) (Homo sapiens, UniProt P78536, N452Q/S266A).
T1 construct: 6xHis (C); made in house; host or cells: baculovirus/Hi5 insect cells
Description: TACE kinetic assay: cleavage of internally quenched peptide substrate TNF-FRET 2 (Ki). Type of assay: biochemical. The note with it: TNF-FRET 2 substrate.

The subject of assay [2] is TNF-α production from human whole blood. Nature of the assay: Inhibition of TNF-α production from human whole blood (hWBA), LPS stimulated, ELISA. Type of assay: cell-based. The conditions noted are these: Homo sapiens, LPS-stimulated human whole blood, TNF-α by ELISA; read-out: hWBA (IC50).

T1 sequence (P78536 215-477 S266A/N452Q): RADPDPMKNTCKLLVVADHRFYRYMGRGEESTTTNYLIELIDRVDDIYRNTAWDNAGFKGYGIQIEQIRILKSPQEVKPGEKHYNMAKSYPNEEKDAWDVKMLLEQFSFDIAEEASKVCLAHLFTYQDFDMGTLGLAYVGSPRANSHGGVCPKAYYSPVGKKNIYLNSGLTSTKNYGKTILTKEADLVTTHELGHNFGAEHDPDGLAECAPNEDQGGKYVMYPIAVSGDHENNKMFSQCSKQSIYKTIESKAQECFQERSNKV

In the case of `COc1ccc2c(c1)C(=O)N(C[C@@]1(c3cc4nc(-c5cnc(N6CCCC6)nc5)ccc4o3)NC(=O)NC1=O)C2` [Compound 1505], the pKi in assay [1] (read-out: Ki) is 9.22. The negative-log IC50 (pIC50) in assay [2] is 5.89.
In the same order, the values of `COc1ccc2c(c1)C(=O)N(C[C@@]1(c3cc4nc(-c5ccc(F)c(C#N)c5)ccc4o3)NC(=O)NC1=O)C2` [Compound 1507] are 9.15 and 5.39.
As to `COc1ccc2c(c1)C(=O)N(C[C@@]1(c3cc4nc(C5CC5)ccc4o3)NC(=O)NC1=O)C2` [Compound 1508], the pKi in assay [1] (read-out: Ki) was 9.05. Besides, the pIC50 in assay [2] is 5.61.
For `COc1ccc2c(c1)C(=O)N(C[C@@]1(c3cc4nc(-c5cnc(OC)nc5OC)ccc4o3)NC(=O)NC1=O)C2` [Compound 1509], in assay [1] (read-out: Ki), the pKi was 9.30. In assay [2], the negative-log IC50 (pIC50) was 5.53.
With `COc1ccc2c(c1)C(=O)N(C[C@@]1(c3cc4nc(C(=O)O)ccc4o3)NC(=O)NC1=O)C2` [Compound 1514], the pKi in assay [1] (read-out: Ki) is 9.15. Also, the pIC50 in assay [2] is 6.71.
`COc1ccc2c(c1F)C(=O)N(C[C@@]1(c3cc4nc(N5CCCC(C(N)=O)C5)ccc4o3)NC(=O)NC1=O)C2` (some centres unmarked) [Compound 1517]: the pKi in assay [1] (read-out: Ki) was 9.30. Also, the pIC50 in assay [2] is 6.59.
In the same order, the values of `COc1ccc2c(c1)C(=O)N(C[C@@]1(c3cc4nc(-c5ccc(OC)nc5)ccc4o3)NC(=O)NC1=O)C2` [Compound 1518] are 9.05 and 5.82.
The matching figures for `COc1ccc2c(c1)C(=O)N(C[C@@]1(c3cc4nc(-c5cnc(N)nc5)ccc4o3)NC(=O)NC1=O)C2` [Compound 1519]: 9.40 and 6.85.
In the same order, the values of `COc1ccc2c(c1)C(=O)N(C[C@@]1(c3cc4nc(-c5c(C)noc5C)ccc4o3)NC(=O)NC1=O)C2` [Compound 1520] are 9.30 and 5.93.
`COc1ccc2c(c1F)C(=O)N(C[C@@]1(c3cc4nc(N5CC[C@@H](O)C5)ccc4o3)NC(=O)NC1=O)C2` [Compound 1521]: the pKi in assay [1] (read-out: Ki) was 9.52. Moreover, the pIC50 in assay [2] was 6.77.
For `COc1ccc2c(c1F)C(=O)N(C[C@]1(C3=CC(c4ccccc4)N(C)O3)NC(=O)NC1=O)C2` (some centres unmarked) [Compound 1525], the negative-log Ki (pKi) in assay [1] (read-out: Ki) is 8.49. Further, the negative logarithm of the IC50 (pIC50) in assay [2] is ≤ 4.00.
Consider `COc1ccc2c(c1)C(=O)N(C[C@]1(C3=CC(c4ccccc4)N(C)O3)NC(=O)NC1=O)C2` (some centres unmarked) [Compound 1526], for which the pKi in assay [1] (read-out: Ki) was 8.60. The pIC50 in assay [2] is ≤ 4.00.
In the same order, the values of `COc1ccc2c(c1)C(=O)N(C[C@@]1(c3cc4nc(-c5cncc(C#N)c5)ccc4o3)NC(=O)NC1=O)C2` [Compound 1529] are 9.10 and 5.44.
In the same order, the values of `COc1ccc2c(c1)C(=O)N(C[C@@]1(c3cc4nc(N5C[C@@H](O)CC5=O)ccc4o3)NC(=O)NC1=O)C2` [Compound 1531] are 9.19 and 6.90.
The matching figures for `COc1ccc2c(c1)C(=O)N(C[C@@]1(c3cc4nc(N(CCO)Cc5ccccn5)ccc4o3)NC(=O)NC1=O)C2` [Compound 1701]: 8.60 and 5.65.
For `COc1ccc2c(c1)C(=O)N(C[C@@]1(c3cc4nc(N(CCO)CCN(C)C)ccc4o3)NC(=O)NC1=O)C2` [Compound 1702], in assay [1] (read-out: Ki), the pKi is 8.40. Besides, the pIC50 in assay [2] is 5.75.
In the same order, the values of `COc1ccc2c(c1)C(=O)N(C[C@@]1(c3cc4nc(N(CCN(C)C)c5cn[nH]c5)ccc4o3)NC(=O)NC1=O)C2` [Compound 1704] are 9.07 and 6.56.
For `COc1ccc2c(c1F)C(=O)N(C[C@@]1(c3cc4nc(N5CCN(C)CC5)c(F)cc4o3)NC(=O)NC1=O)C2` [Compound 1710], the negative-log Ki (pKi) in assay [1] (read-out: Ki) is 8.97. Further, the negative-log IC50 (pIC50) in assay [2] was 6.66.
The matching figures for `COc1ccc2c(c1F)C(=O)N(C[C@@]1(c3cc4nc(N5CCCNCC5)ccc4o3)NC(=O)NC1=O)C2` [Compound 1712]: 9.08 and 6.72.
The matching figures for `COc1ccc2c(c1F)C(=O)N(C[C@@]1(c3cc4nc(N5CCCN(C)CC5)ccc4o3)NC(=O)NC1=O)C2` [Compound 1713]: 9.12 and 6.82.
Regarding `COc1ccc2c(c1F)C(=O)N(C[C@@]1(c3cc4nc(N(CCN(C)C)c5cn[nH]c5)ccc4o3)NC(=O)NC1=O)C2` [Compound 1714], the pKi in assay [1] (read-out: Ki) is 9.07. Moreover, the negative logarithm of the IC50 (pIC50) in assay [2] is 6.57.
In the same order, the values of `COc1ccc2c(c1F)C(=O)N(C[C@@]1(c3cc4nc(N(c5cn[nH]c5)C5CCN(C)CC5)ccc4o3)NC(=O)NC1=O)C2` [Compound 1717] are 9.21 and 6.74.
For the compound `COc1ccc2c(c1F)C(=O)N(C[C@@]1(c3cc4nc(-c5ccnc(N6CCN(C(=O)C(F)(F)F)CC6)c5)ccc4o3)NC(=O)NC1=O)C2` [Compound 1718], the negative-log Ki (pKi) in assay [1] (read-out: Ki) is 9.32. The negative logarithm of the IC50 (pIC50) in assay [2] is 6.52.
In the same order, the values of `COc1ccc2c(c1F)C(=O)N(C[C@@]1(c3cc4nc(-c5ccnc(N6CCNCC6)c5)ccc4o3)NC(=O)NC1=O)C2` [Compound 1719] are 9.62 and 6.83.
Turning to `COc1ccc2c(c1)C(=O)N(C[C@@]1(c3cc4nc(-c5ccnc(N6CCNCC6)c5)ccc4o3)NC(=O)NC1=O)C2` [Compound 1720], in assay [1] (Ki), the pKi is 9.51. Further, in assay [2], the pIC50 was 6.65.
The matching figures for `O=C1NC(=O)[C@](CN2Cc3ccc(O)c(F)c3C2=O)(c2cc3ncccc3o2)N1` [Compound 1721]: 8.79 and < 5.00.
In the case of `COc1ccc2c(c1)C(=O)N(C[C@@]1(c3cc4nc(N(c5cn[nH]c5)C5CCNCC5)ccc4o3)NC(=O)NC1=O)C2` [Compound 1722], the pKi in assay [1] (Ki) was 9.41. In addition, the negative-log IC50 (pIC50) in assay [2] was 7.03.
`COc1ccc2c(c1)C(=O)N(C[C@@]1(c3cc4nc(NC5CCNCC5)ccc4o3)NC(=O)NC1=O)C2` [Compound 1723]: in assay [1] (read-out: Ki), the pKi was 8.58. Moreover, the negative logarithm of the IC50 (pIC50) in assay [2] is 6.25.
Regarding `COc1ccc2c(c1F)C(=O)N(C[C@@]1(c3cc4nc(N(c5cn[nH]c5)C5CCNCC5)ccc4o3)NC(=O)NC1=O)C2` [Compound 1724], the negative logarithm of the Ki (pKi) in assay [1] (read-out: Ki) was 8.88. Besides, the pIC50 in assay [2] is 6.73.
The matching figures for `COc1ccc2c(c1F)C(=O)N(C[C@@]1(c3cc4nc(N5CCNCC5)ccc4o3)NC(=O)NC1=O)C2` [Compound 1725]: 9.22 and 7.01.
On to `COc1ccc2c(c1F)C(=O)N(C[C@@]1(c3cc4nc(-c5ccc(N(C)C)nc5)ccc4o3)NC(=O)NC1=O)C2` [Compound 1726], for which, in assay [1] (read-out: Ki), the pKi is 8.83. Besides, the pIC50 in assay [2] was < 5.00.
The matching figures for `CCN1CCCN(c2ccc3oc([C@]4(CN5Cc6ccc(OC)c(F)c6C5=O)NC(=O)NC4=O)cc3n2)CC1` [Compound 1727]: 10.32 and 6.81.
In the same order, the values of `COc1ccc2c(c1F)C(=O)N(C[C@@]1(c3cc4nc(Nc5cccnc5)ccc4o3)NC(=O)NC1=O)C2` [Compound 1728] are 9.33 and 6.55.
For `COc1ccc2c(c1)C(=O)N(C[C@@]1(c3cc4nc(Nc5cn[nH]c5)ccc4o3)NC(=O)NC1=O)C2` [Compound 1729], in assay [1] (read-out: Ki), the negative-log Ki (pKi) is 9.37. Also, the negative logarithm of the IC50 (pIC50) in assay [2] was 6.68.
The matching figures for `COc1ccc2c(c1F)C(=O)N(C[C@@]1(c3cc4nc(Nc5cn[nH]c5)ccc4o3)NC(=O)NC1=O)C2` [Compound 1730]: 9.22 and 6.76.
In the same order, the values of `COc1ccc2c(c1)C(=O)N(C[C@@]1(c3cc4nc(Nc5cncc(F)c5)ccc4o3)NC(=O)NC1=O)C2` [Compound 1731] are 8.88 and 5.38.
Regarding `COc1ccc2c(c1)C(=O)N(C[C@@]1(c3cc4nc(Nc5ccc(-c6cn[nH]c6)cn5)ccc4o3)NC(=O)NC1=O)C2` [Compound 1732], in assay [1] (read-out: Ki), the pKi is 8.72. Moreover, in assay [2], the negative-log IC50 (pIC50) is 6.48.
As for `O=C1NC(=O)[C@](CN2Cc3ccc(O)cc3C2=O)(c2cc3ncccc3o2)N1` [Compound 1735], the pKi in assay [1] (Ki) is 8.82. The negative-log IC50 (pIC50) in assay [2] was 5.42.
Take `O=C1NC(=O)[C@](CN2Cc3ccc(O)c(I)c3C2=O)(c2cc3ncccc3o2)N1` [Compound 1736]: in assay [1] (read-out: Ki), the pKi is 7.27. Also, in assay [2], the negative logarithm of the IC50 (pIC50) was < 5.00.
In the case of `C#Cc1c(O)ccc2c1C(=O)N(C[C@@]1(c3cc4ncccc4o3)NC(=O)NC1=O)C2` [Compound 1737], the pKi in assay [1] (read-out: Ki) was 8.24. For the same compound, the negative-log IC50 (pIC50) in assay [2] was < 5.00.
Take `COc1ccc2c(c1Br)C(=O)N(C[C@@]1(c3cc4ncccc4o3)NC(=O)NC1=O)C2` [Compound 1738]: in assay [1] (read-out: Ki), the pKi was 8.85. Besides, in assay [2], the pIC50 is < 5.00.
The matching figures for `COc1ccc2c(c1)C(=O)N(C[C@@]1(c3cc4c(ccc5sc(C)nc54)o3)NC(=O)NC1=O)C2` [Compound 1739]: 10.15 and 5.34.
With `Cc1ccc2c(c1)C(=O)N(C[C@@]1(c3cc4ncccc4o3)NC(=O)NC1=O)C2` [Compound 1740], the negative-log Ki (pKi) in assay [1] (Ki) is 8.54. The negative logarithm of the IC50 (pIC50) in assay [2] was < 5.00.
`COc1ccc2c(c1F)C(=O)N(C[C@@]1(c3cc4c(ccc5sc(N)nc54)o3)NC(=O)NC1=O)C2` [Compound 1741]: the negative-log Ki (pKi) in assay [1] (read-out: Ki) is 9.66. Further, in assay [2], the pIC50 was 6.64.
The matching figures for `Cn1cc(-c2ccc3c(c2)C(=O)N(C[C@@]2(c4cc5ncccc5o4)NC(=O)NC2=O)C3)cn1` [Compound 1742]: 8.44 and 5.43.
Take `COc1ccc2c(c1F)C(=O)N(C[C@@]1(c3cc4cc5sc(N)nc5cc4o3)NC(=O)NC1=O)C2` [Compound 1743]: in assay [1] (Ki), the pKi was 9.85. For the same compound, in assay [2], the pIC50 was 6.63.
As for `COc1ccc2c(c1)C(=O)N(C[C@@]1(c3cc4nc(-c5cc[nH]c5)ccc4o3)NC(=O)NC1=O)C2` [Compound 1900], in assay [1] (read-out: Ki), the pKi is 9.24. Further, in assay [2], the negative logarithm of the IC50 (pIC50) is 6.34.
The matching figures for `COc1ccc2c(c1)C(=O)N(C[C@@]1(c3cc4nc(-c5cccc(O)c5)ccc4o3)NC(=O)NC1=O)C2` [Compound 1902]: 9.55 and 6.00.
Take `COC(=O)c1ccc2oc([C@]3(CN4Cc5ccc(OC)c(F)c5C4=O)NC(=O)NC3=O)cc2n1` [Compound 1903]: the pKi in assay [1] (read-out: Ki) was 9.32. The pIC50 in assay [2] is 6.61.
